Reference: patent US9896512B2, “Antitumor peptide derived from a complementarity determining region of a humanized monoclonal antibody to NAP12B transporter” (Recepta Biopharma S.A., priority 2010, dated 2018)
Where two headings read alike, the source gives them in different places. Non-standard residues stand in square brackets, D forms with d. Residues, ends and D or L forms follow the SMILES beside them. No end group written: not given here.

How the values were obtained:
[1] = tested on: human glioblastoma U87 cells; assay: Cell migration, wound healing assay; format: cell-based; conditions: peptide 500 μM, 24 hours
Description: (§1) For the migration studies, 5×10^5 or 10^6 cells were distributed on 6-well plates and let them to adhere for 2 hours at 37° C./5% CO2. The culture medium was changed and the peptide was added at 500 μM overnight. The cell monolayer was “wounded” with a P1000 tip and incubated for 24 hours. Images of untreated cells (control) and peptide treated cells were captured with a JENOPTIK camera. Cell numbers (nuclei) were determined using the Pixcavator software version 5.0.

[2] = tested on: human cervix cancer HeLa cells; assay: Cell migration, wound healing assay; format: cell-based; conditions: peptide 500 μM, 24 hours
Description: as §1

[3] = tested on: human cervix cancer SiHa cells; assay: Cell migration, wound healing assay; format: cell-based; conditions: peptide 500 μM, 24 hours
Description: as §1

[4] = tested on: B16F10-Nex2 melanoma cells; assay: Cell migration, wound healing assay; format: cell-based, murine; conditions: peptide 500 μM, 24 hours after wounding
Description: as §1
Viable B16F10-Nex2 cells (5×105)/well were distributed on a 6-well culture plate and incubated overnight at 37° C. in a humidified chamber with 5% CO2. A P1000 tip was used for wounding the cell monolayer and the image was immediately captured (0 hour) using a camera (Jenoptik) with the software Progres 2.8. After 24 hours a new image of the same field was obtained and recorded (24 hours).
Viable B16F10-Nex2 cells (3×10^5)/well were distributed in a 12-well culture plate and incubated for 4 hours at 37° C. in a humidified chamber with 5% CO2. Fresh medium containing RB10 (SEQ ID NO: 9) at different concentrations was added to the wells and incubated again for 4 hours. The monolayer wounding was performed as described above in Example 12, and images obtained accordingly. After 24 hours a new image in the same field was obtained and recorded (24 hours). […] Magnification ×100.

tumor cells [5] = assay: Cell adherence assay (detachment with trypsin/EDTA); format: cell-based
Description: At a lower dose, cells would be detached with trypsin/EDTA at rates inversely proportional to the peptide concentration. Conceivably, peptides RB9 and RB10 affected the cytoskeleton dynamics of cells, thus signaling increased cell adhesion.
B16F10-Nex2.1 cells (5×10^3) and U87-MG cells (1×10^4) were cultivated in 96-well plates and incubated with different concentrations of RB9 (SEQ ID NO: 8) and RB10 (SEQ ID NO: 9) from 0.01 to 1 mM (i.e., 0.01, 0.05, 0.1, 0.25, 0.7, 0.8 and 1 mM of RB9 and RB10 for B16F10-Nex 2.1 cells; and 0.25, 0.5, 0.75 and 1 mM of RB9 and RB10 for U87-MG cells). After 18 hours incubation, viable cells detached with trypsin/EDTA were counted using Trypan blue exclusion staining. All assays were performed in triplicate in two independent experiments.
SKBR3 cells (1×10^4) were cultivated in 96-well plates and incubated with RB9 (SEQ ID NO: 8) and RB10 (SEQ ID NO: 9). After 18 hours incubation, viable cells detached with trypsin/EDTA were counted using Trypan blue exclusion staining. Assays were performed in triplicate in two independent experiments. The A2058 human melanoma cells (1×10^4) were incubated for 4 hours at 37° C. in a humidified chamber with 5% CO2. Fresh media containing different peptide concentrations of RB9 and RB10 ranging from 0 to 1 mM (i.e., 0, 0.25, 0.5 and 1 mM) was added to the wells and incubated for 24 hours. The media was then aspirated, cells were detached with 30 μl/well of trypsin-EDTA for five minutes at 37° C. and viable cells were counted in a Neubauer chamber using Trypan blue. As shown in FIGS. 2A-2D, 50% of cells were trypsin-EDTA resistant at 630 and 610 μM RB9 and RB10, respectively.

tumor cells [6] = assay: Antitumor activity of RebMab 200 CDR peptides; format: cell-based
Description: (§2) Details of the in vitro tumor cell growth, cytotoxicity tests, determination of viable cells and in vivo protection experiments with B16F10 cells in a mouse metastatic model are described in Polonelli et al. (PLoS One. 3(6):e2371, 2008) and Dobroff et al. (Translat. Onc., 3: 204-217, 2010).
Amidated RebMab 200 CDR H2 (SEQ ID NO: 7) shares up to sixteen (16) identical amino acids with similar H2 fragments from several murine antibodies of various specificities.

[7] = tested on: melanoma B16F10-Nex2 cells; assay: Alanine scanning series cell adhesion assay (MTT after trypsin-EDTA); format: cell-based, murine; conditions: 1 mM peptide, 24 hours
Description: The peptide RB10 (SEQ ID NO: 9) was engineered to replace each amino acid by alanine using Ala-scan methodology, and thus help evaluate the role of each amino acid on biological effect, specifically on the hyper-adherence observed with 1 mM peptide.
For this purpose, viable melanoma B16F10-Nex2 cells (1×10^4)/well were distributed on a 96-well culture plate and incubated for 4 hours. Fresh media containing 1 mM of the alanine-scanning series for RB10 was added and incubated for 24 hours. Treated cells were detached with 30 μl/well of trypsin-EDTA for five minutes at 37° C. and gently washed with PBS. Cells were incubated for 4 hours with 0.5 mg/mL of MTT [3-(4,5-Dimethylthiazol-2-yl)-2,5-diphenyltetrazolium bromide] in fresh media and the formazan crystals were solubilized adding 1 volume of a 10% SDS solution overnight. Intensity was measured using a plate reader at 570 nm. […] The 100% value for each peptide represented the treated cells that had not been trypsinized.

[8] = tested on: B16F10-Nex2 melanoma cells; assay: In vivo protection against lung colonization (metastatic melanoma model); design: species or system C57B1/6 mice; conditions: 250 μg i.p. on days 1, 3, 5, 7, 9, 11; lungs after 22 days
Description: as §2
Peptides RB9 and RB10 along with the apoptotic peptide A4H3, a true microantibody of cytotoxic anti-melanoma mAb (A4) (Dobroff et al., Translat. Onc., 3: 204-217, 2010), were tested for their protective effects against lung colonization by B16F10-Nex2 melanoma cells (2×105) injected intravenously in C57B1/6 mice (6 animals/group). Peptides were intraperitoneally administered (250 μg i.p.) on days 1, 3, 5, 7, 9, 11 after tumor cell challenge. Lungs of peptide-treated animals are shown in FIG. 5 after 22 days of tumor challenge. As noticed, peptide treatment was interrupted 10 days before animal sacrifice.
In vivo protection by peptides RB9 and RB10 (and A4H3 control) against lung colonization by B16F10-Nex2 melanoma cells (2×105) injected intravenously in C57B1/6 mice (6 animals/group) is shown in FIG. 6. The other 5 CDRs of RebMab200 (SEQ ID NOs: 7, 10, 11, 12, 13) were unprotective in vivo. Peptides were administered in the same way as described above, and the number of lung nodules was determined.

[9] = Peptide degradation by human plasma (HPLC / mass spectrum); format: in vitro ADME; conditions: human plasma, 37° C.
Description: Peptides have variable half lives in the plasma due to the proteolytic activity and the renal filtration, which are relevant aspects in the pharmacokinetics of drug candidates.
To analyze the peptide in HPLC and Mass Spectrum, an aliquot of 200 μL was transferred to a new Eppendorf tube and proteins were precipitated with 20 μL trifluoroacetic acid for 5 minutes at 4° C. After centrifugation for 10 minutes at 14,000 rpm, the supernatant was analyzed in an LC/ESI-MS (Waters).
Regarding assays for determining time-lapse plasma degradation of RB9 peptide, peptide degradation by human plasma was monitored in HPLC and Mass spectra every 30 minutes as described above (FIG. 12). About 50% RB9 was cleaved after 2 hours of incubation at 37° C.

Which “inhibition of cell migration” value [1] does the source give for C[C@H](NC(=O)[C@H](CCCNC(=N)N)NC(=O)[C@H](C)NC(=O)[C@@H](NC(=O)[C@H](CCC(=O)O)NC(=O)CNC(=O)[C@H](CCCNC(=N)N)NC(=O)[C@@H](C)NC(=O)[C@@H](N)CS)[C@@H](C)O)C(=O)N[C@H](C(=O)N[C@@H](Cc1ccccc1)C(=O)N[C@@H](C)C(=O)N[C@@H](Cc1ccc(O)cc1)C(=O)N[C@@H](Cc1c[nH]c2ccccc12)C(=O)NCC(=O)N[C@@H](CCC(N)=O)C(=O)NCC(N)=O)[C@@H](C)O [RB10 M3, C(dA)RGETARATFAYWGQG-NH2] (H-C[dA]RGETARATFAYWGQG-NH2; N-terminus assumed) here?
The value was “partial inhibition”.

What about the “inhibition of cell migration” value ([1]; listed as RB10M3) of the same molecule?
The value was “partial migration inhibition”.

And the “inhibition of cell migration” value [2]?
Its value is “almost complete inhibition”.

And the “inhibition of cell migration” value ([2]; listed as RB10M3)?
The value was “complete or almost complete inhibition”.

What about the “inhibition of cell migration” value [3] of the same molecule?
Its value is “almost complete inhibition”.

What about the “inhibition of cell migration” value ([3]; listed as RB10M3) of the same molecule?
The value was “complete or almost complete inhibition”.

What about the “inhibition of cell migration (words)” value [4] of the same molecule?
The value was “complete inhibition”.

What about the “inhibition of cell migration (words)” value ([4]; listed as RB10M3) of the same molecule?
Its value is “Total inhibition”.

With “CARGETARATFAYWGQG (Sequence of CDR H3 from RebMab 200 (huMX35), obtainable by a known method) [RB10a]” as the molecule, how does the “adherence at peptide concentration of 1 mM (not suspended by trypsin/EDTA)” value (tumor cells [5]; 1 mM peptide) read?
Its value is “hyper-adherence”.

What about the “adherence of tumor cells to the substrate” value (tumor cells [5]; 96-well plates, RPMI 10% FCS, seen in B16F10-Nex2.1, U87MG, A5028 melanoma, SKBR3, SiHa, HCT cells) of the same molecule?
The value was “dose dependent increase of adherence”.

And the antitumor activity (tumor cells [6])?
Its antitumor activity is “antitumor effects”.

And the trypsin/EDTA-resistant cell adherence [7]?
Its trypsin/EDTA-resistant cell adherence is “high trypsin/EDTA-resistant cell adherence”.

With “AIYPGNGDTSYKQKFRG-NH2 [RB8, AIYPGNGDTSYKQKFRG-NH2]” as the molecule, how does the antitumor activity (tumor cells [6]; listed as RBB) read?
Its antitumor activity is “no antitumor activity”.

What about the antitumor activity (tumor cells [6]; listed as SEQ ID NO: 7) of the same molecule?
The antitumor activity was “no antitumor effect”.

And the “protection against lung colonization (lung nodules)” value [8]?
The value was “unprotective”.

And the half-life [9]?
The half-life was under 1 h.
